# Experimental data: ChEMBL document CHEMBL5653631, “A Potent and Selective ULK1 Inhibitor Suppresses Autophagy and Sensitizes Cancer Cells to Nutrient Stress” (iScience, 2018)
# How the values were obtained:
# [1] = target: Calcium/calmodulin-dependent protein kinase kinase 1 (Homo sapiens) (UniProt Q8N5S9); assay: Inhibition of human recombinant CaMKK1 at 500 nM related to control ULK1
# [2] = target: Calcium/calmodulin-dependent protein kinase type 1G (Homo sapiens) (UniProt Q96NX5); assay: Inhibition of human recombinant CaMK1g at 500 nM related to control ULK1
# [3] = target: Tyrosine-protein kinase Fer (Homo sapiens) (UniProt P16591); assay: Inhibition of human recombinant FER at 500 nM related to control ULK1
# [4] = target: T1, Eukaryotic translation initiation factor 2-alpha kinase 3 (Homo sapiens) (UniProt Q9NZJ5); assay: Inhibition of human recombinant PEK at 500 nM related to control ULK1
# T1 sequence (whole entry): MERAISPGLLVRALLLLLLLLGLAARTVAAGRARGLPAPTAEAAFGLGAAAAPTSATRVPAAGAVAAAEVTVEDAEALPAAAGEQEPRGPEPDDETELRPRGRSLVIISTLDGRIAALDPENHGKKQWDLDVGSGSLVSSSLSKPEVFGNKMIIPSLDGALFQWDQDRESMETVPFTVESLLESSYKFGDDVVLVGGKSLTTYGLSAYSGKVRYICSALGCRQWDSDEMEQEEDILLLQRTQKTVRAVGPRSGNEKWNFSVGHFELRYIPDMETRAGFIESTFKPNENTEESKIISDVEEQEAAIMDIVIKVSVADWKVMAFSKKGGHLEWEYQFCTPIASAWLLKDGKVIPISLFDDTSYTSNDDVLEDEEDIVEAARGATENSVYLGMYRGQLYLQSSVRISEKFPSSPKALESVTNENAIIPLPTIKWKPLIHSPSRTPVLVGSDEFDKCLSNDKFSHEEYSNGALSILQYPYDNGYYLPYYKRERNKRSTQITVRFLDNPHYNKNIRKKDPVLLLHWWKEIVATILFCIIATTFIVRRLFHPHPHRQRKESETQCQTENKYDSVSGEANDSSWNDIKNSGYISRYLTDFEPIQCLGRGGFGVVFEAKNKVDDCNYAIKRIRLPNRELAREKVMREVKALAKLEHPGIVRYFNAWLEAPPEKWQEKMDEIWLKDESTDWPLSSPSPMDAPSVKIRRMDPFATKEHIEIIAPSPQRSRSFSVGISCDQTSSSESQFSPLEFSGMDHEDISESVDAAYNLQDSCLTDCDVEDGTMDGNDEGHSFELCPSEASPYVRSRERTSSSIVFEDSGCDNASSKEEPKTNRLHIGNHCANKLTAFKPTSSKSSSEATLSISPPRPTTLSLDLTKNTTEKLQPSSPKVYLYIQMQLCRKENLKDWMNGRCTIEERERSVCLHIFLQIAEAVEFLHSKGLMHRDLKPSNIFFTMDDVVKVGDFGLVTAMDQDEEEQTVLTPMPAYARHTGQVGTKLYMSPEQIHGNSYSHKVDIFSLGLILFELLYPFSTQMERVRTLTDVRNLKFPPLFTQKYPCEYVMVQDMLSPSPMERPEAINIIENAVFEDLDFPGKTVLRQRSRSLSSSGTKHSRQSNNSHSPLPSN
# [5] = target: T2, Ephrin type-B receptor 1 (Homo sapiens) (UniProt P54762); assay: Inhibition of human recombinant EphB1 at 500 nM in presence of ATP by radiometric assay relative to control
# T2 sequence (whole entry): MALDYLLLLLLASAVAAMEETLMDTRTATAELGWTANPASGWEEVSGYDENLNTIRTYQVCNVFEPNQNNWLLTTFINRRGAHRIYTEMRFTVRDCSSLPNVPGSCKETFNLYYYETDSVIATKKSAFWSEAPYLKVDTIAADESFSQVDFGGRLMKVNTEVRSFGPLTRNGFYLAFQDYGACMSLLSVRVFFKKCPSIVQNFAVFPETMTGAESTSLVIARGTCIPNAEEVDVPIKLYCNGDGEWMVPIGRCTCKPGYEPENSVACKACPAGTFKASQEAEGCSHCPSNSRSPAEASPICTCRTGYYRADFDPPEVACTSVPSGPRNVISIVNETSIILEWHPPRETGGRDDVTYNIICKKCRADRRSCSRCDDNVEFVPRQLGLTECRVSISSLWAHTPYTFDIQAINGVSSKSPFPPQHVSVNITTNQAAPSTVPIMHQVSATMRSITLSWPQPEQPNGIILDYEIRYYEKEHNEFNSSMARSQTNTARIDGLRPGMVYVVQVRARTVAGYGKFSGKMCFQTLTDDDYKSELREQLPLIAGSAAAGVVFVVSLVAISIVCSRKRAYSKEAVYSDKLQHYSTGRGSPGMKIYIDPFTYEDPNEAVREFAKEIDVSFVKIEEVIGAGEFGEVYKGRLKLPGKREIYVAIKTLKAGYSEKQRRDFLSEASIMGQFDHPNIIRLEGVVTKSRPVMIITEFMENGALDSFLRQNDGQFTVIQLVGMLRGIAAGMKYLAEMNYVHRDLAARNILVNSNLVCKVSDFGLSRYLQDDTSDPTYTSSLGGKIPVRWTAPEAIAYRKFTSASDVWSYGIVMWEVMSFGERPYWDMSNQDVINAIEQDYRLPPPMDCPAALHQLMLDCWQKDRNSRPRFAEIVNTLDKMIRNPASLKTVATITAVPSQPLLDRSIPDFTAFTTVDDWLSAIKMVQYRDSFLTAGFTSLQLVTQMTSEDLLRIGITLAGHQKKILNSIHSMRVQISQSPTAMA
# [6] = target: Serine/threonine-protein kinase VRK2 (Homo sapiens) (UniProt Q86Y07); assay: Inhibition of human recombinant VRK2 at 15 nM related to control ULK1
# [7] = target: Serine/threonine-protein kinase PAK 3 (Homo sapiens) (UniProt O75914); assay: Inhibition of human recombinant PAK3 at 15 nM in presence of ATP by radiometric assay relative to control
# [8] = target: Tyrosine-protein kinase FRK (Homo sapiens) (UniProt P42685); assay: Inhibition of human recombinant FRK at 15 nM related to control ULK1
# [9] = target: Macrophage-stimulating protein receptor (Homo sapiens) (UniProt Q04912); assay: Inhibition of human recombinant RON at 40 nM in presence of ATP by radiometric assay relative to control
# [10] = target: Receptor tyrosine-protein kinase erbB-2 (Homo sapiens) (UniProt P04626); assay: Inhibition of human recombinant ErbB2 at 40 nM related to control ULK1
# Receptor tyrosine-protein kinase erbB-2 (Homo sapiens), sequence (P04626 whole entry): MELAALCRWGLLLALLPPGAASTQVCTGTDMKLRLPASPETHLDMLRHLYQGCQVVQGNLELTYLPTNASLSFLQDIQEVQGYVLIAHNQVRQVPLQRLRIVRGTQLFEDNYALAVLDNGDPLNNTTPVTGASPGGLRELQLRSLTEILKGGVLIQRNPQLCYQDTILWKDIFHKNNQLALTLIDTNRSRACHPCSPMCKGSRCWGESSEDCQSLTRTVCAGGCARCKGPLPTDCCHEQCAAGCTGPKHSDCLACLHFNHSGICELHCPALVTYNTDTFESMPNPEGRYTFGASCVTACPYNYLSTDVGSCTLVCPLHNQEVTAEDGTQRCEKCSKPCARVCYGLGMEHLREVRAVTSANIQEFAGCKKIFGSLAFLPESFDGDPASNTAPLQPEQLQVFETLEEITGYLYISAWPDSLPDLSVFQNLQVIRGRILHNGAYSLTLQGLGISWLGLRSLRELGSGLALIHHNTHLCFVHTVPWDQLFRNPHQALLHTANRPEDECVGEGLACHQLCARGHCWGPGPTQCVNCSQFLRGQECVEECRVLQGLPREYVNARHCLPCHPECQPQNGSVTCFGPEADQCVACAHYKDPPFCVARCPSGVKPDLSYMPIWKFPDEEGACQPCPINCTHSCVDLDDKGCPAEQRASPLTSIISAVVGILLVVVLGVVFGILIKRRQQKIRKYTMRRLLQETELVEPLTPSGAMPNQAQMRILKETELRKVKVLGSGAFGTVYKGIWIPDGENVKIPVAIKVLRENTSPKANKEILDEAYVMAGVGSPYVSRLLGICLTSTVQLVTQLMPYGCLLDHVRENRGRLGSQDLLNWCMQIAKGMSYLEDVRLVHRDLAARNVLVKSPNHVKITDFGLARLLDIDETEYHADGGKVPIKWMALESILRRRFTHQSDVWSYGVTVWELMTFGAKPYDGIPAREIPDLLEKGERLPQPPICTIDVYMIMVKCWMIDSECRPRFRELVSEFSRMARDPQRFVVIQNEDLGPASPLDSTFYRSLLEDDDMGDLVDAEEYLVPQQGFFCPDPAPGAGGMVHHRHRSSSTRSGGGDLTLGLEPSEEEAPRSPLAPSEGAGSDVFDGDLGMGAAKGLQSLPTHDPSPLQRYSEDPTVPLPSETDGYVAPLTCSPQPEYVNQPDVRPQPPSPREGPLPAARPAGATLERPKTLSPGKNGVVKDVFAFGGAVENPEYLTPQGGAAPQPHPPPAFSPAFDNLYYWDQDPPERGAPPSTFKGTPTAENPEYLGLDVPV
# Tyrosine-protein kinase Fer (Homo sapiens), sequence (P16591 whole entry, looked up): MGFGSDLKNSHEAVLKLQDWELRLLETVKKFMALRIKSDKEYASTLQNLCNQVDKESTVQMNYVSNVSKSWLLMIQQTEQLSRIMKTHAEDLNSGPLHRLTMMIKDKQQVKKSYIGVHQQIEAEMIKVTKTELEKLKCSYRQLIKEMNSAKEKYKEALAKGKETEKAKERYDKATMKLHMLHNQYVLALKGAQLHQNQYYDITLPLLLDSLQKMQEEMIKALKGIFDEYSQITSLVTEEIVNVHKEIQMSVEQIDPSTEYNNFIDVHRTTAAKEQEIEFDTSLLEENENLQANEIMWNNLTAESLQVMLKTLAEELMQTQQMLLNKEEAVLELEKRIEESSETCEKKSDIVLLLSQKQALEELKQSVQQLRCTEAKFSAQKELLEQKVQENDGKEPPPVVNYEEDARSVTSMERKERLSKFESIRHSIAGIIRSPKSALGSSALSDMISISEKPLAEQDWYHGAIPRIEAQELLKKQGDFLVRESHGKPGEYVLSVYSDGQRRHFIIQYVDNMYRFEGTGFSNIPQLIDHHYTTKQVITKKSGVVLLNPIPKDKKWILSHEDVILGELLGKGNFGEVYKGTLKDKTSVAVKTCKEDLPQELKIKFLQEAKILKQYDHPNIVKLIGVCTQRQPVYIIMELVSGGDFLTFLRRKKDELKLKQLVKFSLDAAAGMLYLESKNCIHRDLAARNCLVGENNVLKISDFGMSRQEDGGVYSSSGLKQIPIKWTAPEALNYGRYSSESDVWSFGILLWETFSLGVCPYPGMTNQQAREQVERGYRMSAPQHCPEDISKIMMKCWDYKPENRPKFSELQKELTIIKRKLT
# Tyrosine-protein kinase FRK (Homo sapiens), sequence (P42685 whole entry): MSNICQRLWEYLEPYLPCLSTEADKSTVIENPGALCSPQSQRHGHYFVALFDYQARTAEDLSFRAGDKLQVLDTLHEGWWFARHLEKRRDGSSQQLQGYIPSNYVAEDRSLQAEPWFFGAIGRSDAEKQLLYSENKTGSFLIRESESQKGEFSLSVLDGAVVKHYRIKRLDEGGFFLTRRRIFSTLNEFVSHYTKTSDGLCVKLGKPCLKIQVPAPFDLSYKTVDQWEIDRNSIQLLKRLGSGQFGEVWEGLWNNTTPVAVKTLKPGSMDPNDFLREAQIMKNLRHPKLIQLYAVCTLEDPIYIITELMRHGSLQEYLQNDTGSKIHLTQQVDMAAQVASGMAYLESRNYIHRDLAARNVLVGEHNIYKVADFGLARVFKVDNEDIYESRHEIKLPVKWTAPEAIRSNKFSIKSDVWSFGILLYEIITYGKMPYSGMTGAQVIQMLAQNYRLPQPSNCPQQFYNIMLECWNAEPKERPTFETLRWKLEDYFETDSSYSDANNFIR
# Serine/threonine-protein kinase PAK 3 (Homo sapiens), sequence (O75914 whole entry, looked up): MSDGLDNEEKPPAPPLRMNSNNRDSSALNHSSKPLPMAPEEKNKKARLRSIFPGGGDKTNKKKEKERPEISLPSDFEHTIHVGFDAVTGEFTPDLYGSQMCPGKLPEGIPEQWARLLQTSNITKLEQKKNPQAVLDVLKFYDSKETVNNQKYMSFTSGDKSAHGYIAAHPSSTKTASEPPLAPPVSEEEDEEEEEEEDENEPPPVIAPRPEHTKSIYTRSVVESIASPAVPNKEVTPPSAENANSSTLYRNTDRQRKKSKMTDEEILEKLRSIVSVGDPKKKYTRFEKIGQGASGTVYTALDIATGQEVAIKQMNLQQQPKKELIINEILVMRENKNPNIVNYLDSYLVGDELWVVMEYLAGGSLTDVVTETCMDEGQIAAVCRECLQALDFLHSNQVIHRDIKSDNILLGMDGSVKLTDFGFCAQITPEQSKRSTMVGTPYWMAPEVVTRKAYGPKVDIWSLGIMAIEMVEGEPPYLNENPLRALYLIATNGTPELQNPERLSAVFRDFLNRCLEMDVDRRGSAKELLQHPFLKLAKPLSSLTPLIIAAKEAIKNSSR
# Serine/threonine-protein kinase VRK2 (Homo sapiens), sequence (Q86Y07 whole entry): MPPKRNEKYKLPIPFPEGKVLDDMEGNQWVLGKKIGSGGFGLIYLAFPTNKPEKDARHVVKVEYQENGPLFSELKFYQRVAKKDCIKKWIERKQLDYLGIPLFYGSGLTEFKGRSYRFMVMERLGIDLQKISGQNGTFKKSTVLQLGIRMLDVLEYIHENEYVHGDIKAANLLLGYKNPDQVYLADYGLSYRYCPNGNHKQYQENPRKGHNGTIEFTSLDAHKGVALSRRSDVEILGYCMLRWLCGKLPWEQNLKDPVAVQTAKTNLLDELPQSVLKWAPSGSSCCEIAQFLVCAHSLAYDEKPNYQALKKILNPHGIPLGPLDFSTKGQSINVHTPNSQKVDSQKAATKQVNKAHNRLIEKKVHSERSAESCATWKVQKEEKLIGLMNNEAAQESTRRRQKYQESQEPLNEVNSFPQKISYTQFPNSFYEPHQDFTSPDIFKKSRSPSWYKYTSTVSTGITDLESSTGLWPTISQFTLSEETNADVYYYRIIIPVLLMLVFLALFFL
# Calcium/calmodulin-dependent protein kinase kinase 1 (Homo sapiens), sequence (Q8N5S9 whole entry, looked up): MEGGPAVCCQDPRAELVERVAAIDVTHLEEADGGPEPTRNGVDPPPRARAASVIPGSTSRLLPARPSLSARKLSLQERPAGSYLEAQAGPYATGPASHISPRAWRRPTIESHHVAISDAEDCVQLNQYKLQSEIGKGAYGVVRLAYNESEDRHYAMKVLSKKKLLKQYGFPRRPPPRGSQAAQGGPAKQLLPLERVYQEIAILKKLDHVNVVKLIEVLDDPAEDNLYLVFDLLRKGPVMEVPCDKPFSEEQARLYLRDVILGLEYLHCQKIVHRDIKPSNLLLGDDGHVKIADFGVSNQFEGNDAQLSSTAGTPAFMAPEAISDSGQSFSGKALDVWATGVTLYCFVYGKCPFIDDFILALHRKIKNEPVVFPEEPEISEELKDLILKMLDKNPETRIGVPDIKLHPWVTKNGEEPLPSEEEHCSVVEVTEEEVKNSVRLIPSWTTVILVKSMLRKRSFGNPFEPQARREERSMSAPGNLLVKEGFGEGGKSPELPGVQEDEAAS
# Calcium/calmodulin-dependent protein kinase type 1G (Homo sapiens), sequence (Q96NX5 whole entry): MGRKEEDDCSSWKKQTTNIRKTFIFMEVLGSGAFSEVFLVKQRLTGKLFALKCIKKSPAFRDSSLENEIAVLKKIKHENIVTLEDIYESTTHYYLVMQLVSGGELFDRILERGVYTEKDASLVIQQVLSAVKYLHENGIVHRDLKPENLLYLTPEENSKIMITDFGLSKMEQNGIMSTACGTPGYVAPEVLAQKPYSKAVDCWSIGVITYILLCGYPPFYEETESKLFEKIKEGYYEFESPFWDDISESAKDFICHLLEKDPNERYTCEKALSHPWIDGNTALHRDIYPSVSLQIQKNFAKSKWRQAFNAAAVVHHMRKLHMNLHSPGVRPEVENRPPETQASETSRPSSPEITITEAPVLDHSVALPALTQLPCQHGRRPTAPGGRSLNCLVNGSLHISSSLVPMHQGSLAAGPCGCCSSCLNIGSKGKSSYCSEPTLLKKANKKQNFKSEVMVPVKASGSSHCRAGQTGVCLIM
compound,measurement,setting,value
CNC(=O)c1ccccc1Oc1nc(Nc2cc(OC)c(OC)c(OC)c2)ncc1Br,fold change (FC),[1],0.11
same,fold change (FC),[2],0.08
same,fold change (FC),[3],0
same,fold change (FC),[4],0
same,inhibition,[5],10%
CC(C)[C@H](NC(=O)c1cc(-c2cnn3cc(-c4ccc(OCCN5CCCCC5)cc4)cnc23)cs1)C(F)(F)F,fold change (FC),[6],0
same,inhibition,[7],4%
same,fold change (FC),[8],0.15
O=C(N[C@@H](C1CC1)C(F)(F)F)c1cc(-c2cnn3cc(-c4ccc(F)cc4)cnc23)cs1,inhibition,[9],0%
same,fold change (FC),[10],0
